Data set [1] is described as follows: Determination of Michael addition reactivity (Example 12): loss of X-H component in butyl acrylate/methanol at room temperature, by back-titration (GC for dimethylmalonate). Type of data set: physicochemical. The following applies: for Relative conversion rates (relative Michael addition reactivity: initial increase in % conversion, per minute): with strong base, same method as for succinimide; for Succinimide remaining (%): strong base (tetrabutylammonium hydroxide) added, % relative to theoretical level. The procedure: Subsequently, the concentration of succinimide is determined as a function of time by taking samples, neutralizing with a known excess of HCl in water, and backtitration with a KOH solution. […] Succinimide concentration is expressed as % relative to the theoretical level based on used amounts.

For data set [2] the following is noted: pKa defined in aqueous environment; cited from earlier work.
Setting [3] is: butyl acrylate/methanol, room temperature.

Here are results for eight molecules from patent US9284423B2, “Crosslinkable composition crosslinkable by real michael addition (RMA) reaction” (NUPLEX RESINS B.V., priority 2011, dated 2016).

The structures appear in SMILES notation.

By pKa is commonly meant the negative logarithm of the acid dissociation constant.

On to `c1nc[nH]n1` [1,2,4-triazole], for which the “Relative conversion rates (relative Michael addition reactivity: initial increase in % conversion, per minute)” value in data set [1] (setting [3]) was 0.91 % conversion, per minute.
For the molecule `CC1(C)NC(=O)NC1=O` [5,5-dimethylhydantoin], in data set [2], the pKa was 10.2. Further, the “Relative conversion rates (relative Michael addition reactivity: initial increase in % conversion, per minute)” value in data set [1] (setting [3]) is listed as 0.03 % conversion, per minute.
With `c1ccc2[nH]nnc2c1` [benzotriazole], the pKa in data set [2] is given as 8.2. For the same molecule, the “Relative conversion rates (relative Michael addition reactivity: initial increase in % conversion, per minute)” value in data set [1] (setting [3]) was 0.29 % conversion, per minute.
As for `CCOC(=O)CC(=O)OCC` [diethylmalonate], the pKa in data set [2] is listed as 13.0.
As for `O=C1Nc2ccccc2C1=O` [isatine], in data set [2], the pKa is on record as 10.3.
In the case of `C[N+](=O)[O-]` [nitromethane], in data set [2], the pKa is recorded as 10.2.
With `O=C1CCC(=O)N1` [succinimide], in data set [1] (in about an hour, [succinimide]/[base]=5), the “Succinimide acidic protons consumed” value is on record as 25%. Also, the “Succinimide remaining (%)” value came out at 99% in data set [1] (time 3 min, [succinimide]/[base]=5, butyl acrylate/methanol, room temperature); 87% in data set [1] (time 30 min, [succinimide]/[base]=5, butyl acrylate/methanol, room temperature); 77% in data set [1] (time 60 min, [succinimide]/[base]=5, butyl acrylate/methanol, room temperature); 60% in data set [1] (time 120 min, [succinimide]/[base]=5, butyl acrylate/methanol, room temperature); 48% in data set [1] (time 180 min, [succinimide]/[base]=5, butyl acrylate/methanol, room temperature). For the same molecule, the “Relative conversion rates (relative Michael addition reactivity: initial increase in % conversion, per minute)” value in data set [1] (setting [3]) was 0.33 % conversion, per minute. Moreover, the “Loss of succinimide N-H without base initiation” value in data set [1] (without base, butyl acrylate/methanol, room temperature, two weeks) was “no significant loss”.
With `O=c1cc[nH]c(=O)[nH]1` [uracil], in data set [2], the pKa is listed as 9.9.
